From patent publication US20030095953A1, “METHODS OF REVERSING DRUG RESISTANCE IN CANCER CELLS” (priority 1999, published 2003)
Counter-ions that a name gives are not always drawn. Like-named read-outs stand apart in the source and are kept apart here.

What was measured:
Format in all cases: cell-based, human
MCF-7-AdrR/asGCS cells [1] = test: Cytotoxicity assay in MCF-7-AdrR/asGCS cells; settings: 72 hr exposure; for EC50: Homo sapiens, MCF-7-AdrR/asGCS cells, read-out: EC50 (amount of drug provoking 50% cell death)
Procedure: (§1) Cytotoxicity Assay. Assays were performed as previously described (Liu, Y. Y., et al., (1999) J. Biol. Chem. 274, 1140-1146; Lavie, Y. et al., (1997) J. Biol. Chem. 272, 1682-1687). Briefly, cells were seeded in 96-well plates (2,000 cells/well), in 0.1 ml RPMI-1640 medium containing 10% FBS, and cultured at 37° C. for 24 hr before addition of drug. Drugs were added in FBS-free medium (0.1 ml), and cells were cultured at 37° C. for the indicated periods. Drug cytotoxicity was determined using the Promega 96 Aqueous cell proliferation assay kit (Promega, Madison, Wis.). Absorbance at 490 nm was recorded using a Microplate Fluorescent Reader, model FL600 (Bio-Tek, Winooski, Vt.).

caspase-3 [2] = test: Caspase-3 assay (DEVD-AFC cleavage) in MCF-7-AdrR/asGCS cells; settings: for increase of caspase-3 activity over control: MCF-7-AdrR/asGCS cells, 10 μM; for caspase-3 activity in GCS antisense-transfected cells vs parental cells: adriamycin 10 μM
Procedure: (§2) Caspase-3 Assay. Caspase-3 activity was assayed by DEVD-AFC cleavage, using the ApoAlert Caspase-3 assay kit (Clontech, Palo Alto, Calif.). The assay was performed as previously described (Liu, Y. Y., et al., (1999) Exp. Cell Res. 252, 464-470). Cells were seeded in 100-mm dishes (500,000 cells/dish) in 10% FBS RPMI-1640 medium. After 24 hr, cells were shifted to 5% FBS RPMI-1640 medium without or with adriamycin, and grown for 24 and 48 hr. Following harvest, cells ([…]) were lysed on ice for 10 min with 50 μl of lysis buffer, and cell debris was removed by centrifugation at 4° C., 10,000×g, for 5 min. The soluble fraction was incubated with 50 μM conjugated substrate DEVD-AFC in a 100 μl reaction volume at 37° C., for 60 min. The free AFC fluoresce was measured at λexcitation 400 nm and λemission 505 nm using a FL600 Microplate Fluorescence Reader. The caspase-3 inhibitor, acetyl-Asp-Glu-Val-Asp-aldehyde was used to exclude nonspecific background in the enzymatic reaction.

MCF-7-AdrR cells [3] = test: Analysis of ceramide in MCF-7-AdrR cells; settings: 48 hr
Procedure: (§3) Analysis of Ceramide. Analysis was performed as previously described (Liu, Y. Y.et al., (1999) J. Biol. Chem. 274, 1140-1146, Lavie, Y., et al., (1996) J. Biol. Chem. 271, 19530-19536). Cells were seeded in 6-well plates (60,000 cells/well) in 10% FBS RPMI-1640 medium. After 24 hr, cells were shifted to 5% FBS medium with or without adriamycin, and grown for the indicated times. Cellular lipids were radiolabeled by adding [3H]palmitic acid (2.5 μCi/ml culture medium) for 24 hr. After removal of medium, cells were rinsed twice with PBS (pH 7.4), and total lipids were extracted as described (Lavie, Y. et al.,. (1996) J. Biol. Chem. 271, 19530-19536). The resulting organic lower phase was withdrawn and evaporated under a stream of nitrogen. Lipids were resuspended in 100 μl of chloroform/methanol (1:1, v/v), and aliquots were applied to TLC plates. Ceramide was resolved using a solvent system containing chloroform/acetic acid (90:10, v/v). Commercial lipid standards were co-chromatographed. After development, lipids were visualized by iodine vapor staining, and the ceramide area was scraped into 0.5 ml water. EcoLume counting fluid (4.5 ml) was added, the samples were mixed, and radioactivity was quantitated by liquid scintillation spectrometry.

caspase-3 [4] = test: Caspase-3 assay (DEVD-AFC cleavage) in MCF-7-AdrR cells; settings: 10 μM, 48 hr
Procedure: as §2

MCF-7-AdrR/asGCS cells [5] = test: Analysis of ceramide in MCF-7-AdrR/asGCS cells
Procedure: as §3

MCF-7-AdrR cells [6] = test: Cytotoxicity assay in MCF-7-AdrR cells; settings: 72 hr exposure, read-out: EC50 (amount of drug provoking 50% cell death)
Procedure: as §1

Structure (SMILES) | decrease of EC50 in MCF-7-AdrR/asGCS vs MCF-7-AdrR cells (MCF-7-AdrR/asGCS cells [1]) [fold] | EC50 (MCF-7-AdrR/asGCS cells [1]) [µM] | increase of caspase-3 activity over control (caspase-3 [2]; 24 hr) [%] | increase of caspase-3 activity over control (caspase-3 [2]; 48 hr) [%] | caspase-3 activity in GCS antisense-transfected cells vs parental cells (caspase-3 [2]; 24 hr) [fold] | caspase-3 activity in GCS antisense-transfected cells vs parental cells (caspase-3 [2]; 48 hr) [fold] | increase of ceramide levels above control (MCF-7-AdrR cells [3]; adriamycin 2.5 μM) [%] | ceramide level response (MCF-7-AdrR cells [3]; adriamycin 0.5-2.5 μM) | increase of caspase-3 activity (caspase-3 [4]) [%] | enhancement of ceramide levels (MCF-7-AdrR/asGCS cells [5]; adriamycin 0.5 μM, 48 hr) [%] | enhancement of ceramide levels (MCF-7-AdrR/asGCS cells [5]; adriamycin 1.0 μM, 48 hr) [%] | increase of ceramide levels (MCF-7-AdrR/asGCS cells [5]; adriamycin 2.5 μM, 24 hr) [%] | increase of ceramide levels (MCF-7-AdrR/asGCS cells [5]; adriamycin 2.5 μM, 48 hr) [%] | enhancement of ceramide levels (MCF-7-AdrR/asGCS cells [5]; adriamycin 2.5 μM, 48 hr (dose series)) [%] | EC50 (MCF-7-AdrR cells [6]; hydrochloride) [µM] | EC50 (MCF-7-AdrR cells [6]; Homo sapiens, 72 h) [µM]
COc1cccc2c1C(=O)c1c(O)c3c(c(O)c1C2=O)C[C@@](O)(C(=O)CO)C[C@@H]3O[C@H]1C[C@H](N)[C@H](O)[C@H](C)O1 [adriamycin, doxorubicin hydrochloride] | 28 | 0.44 ± 0.01 | 290 | 980 | 3 | 6 | 16 | minimal response | 160 | 181 | 188 | 200 | 250 | 246 | 10 | 12.4 ± 0.7
CCCCCCCCCCCCC/C=C/[C@@H](O)[C@H](CO)NC(=O)CCCCC [C6-ceramide, N-hexanoylsphingosine] | 2.4 | 4 ± 0.03 |  |  |  |  |  |  |  |  |  |  |  |  |  | 9.6 ± 0.5
